“And” between values parts separate entries of the source, which are not always exact repeats. Identical values can stand only once.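 Compound exposure: 48 hours, 5 concentrations, 96-well plates. GI50: concentration for 50% inhibition of growth.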 The source made the active and inactive calls. Rule as the data show it: active = GI50 up to about 1.1 µM and inactive = higher.

Some test systems named below: SK-MEL-5; EKVX; COLO 205; SK-MEL-2; SNB-75; KM12; HOP-62; SF-295; SN12C; LOX IMVI; SK-MEL-28; UACC-62; MOLT-4; MDA-N; RXF 393; HT-29; MDA-MB-435; SF-539; HCC 2998; OVCAR-4.
Common to all, as to experiment: growth of human tumour cells (NCI), 48 h

Regarding `COc1cccc2c1C(=O)c1ccc3cc(CCl)cc(O)c3c1C2=O`, the GI50 with SK-MEL-5 was 0.364 µM (active); in the experiment with EKVX, 1.09 µM (active); with COLO 205, 0.203 µM (active); in the experiment on SK-MEL-2, 0.33 µM (active); in the experiment with SNB-75 it was 0.94 µM (active); in the experiment on KM12 it was 0.0605 µM (active). Besides, the GI50 was 0.483 µM (active) in the experiment on HOP-62; 0.314 µM (active) with SF-295; 0.163 µM (active) in the experiment with SN12C; 0.158 µM (active) with LOX IMVI; 0.348 µM (active) with SK-MEL-28; 0.202 µM (active) in the experiment with UACC-62. Moreover, the GI50 in the experiment on MOLT-4 was 0.238 µM (active); with MDA-N, 0.231 µM (active); with RXF 393, 0.244 µM (active); with HT-29, 0.207 µM (active); in the experiment with MDA-MB-435, 0.198 µM (active); with SF-539, 0.272 µM (active). Further, in the experiment with HCC 2998, the GI50 was 0.951 µM (active).

Consider `CN(C)c1ccc(/C=C2\CCCCCC2=O)cc1`, for which the GI50 in the experiment on SK-MEL-5 is 56 µM (inactive); with EKVX it was > 100 µM (inactive); in the experiment on COLO 205, > 100 µM (inactive); in the experiment on SK-MEL-2 it was > 100 µM (inactive); with SNB-75, > 100 µM (inactive); in the experiment on KM12 it was > 100 µM (inactive). The GI50 in the experiment with HOP-62 is 66.7 µM (inactive); in the experiment with SF-295, > 100 µM (inactive); in the experiment with SN12C, > 100 µM (inactive); in the experiment with SK-MEL-28, > 100 µM (inactive); with UACC-62 it was 90.4 µM (inactive); in the experiment on MOLT-4 it was > 100 µM (inactive). Further, the GI50 in the experiment on MDA-N, in the experiment with RXF 393, with HT-29, in the experiment with MDA-MB-435, in the experiment with SF-539 and in the experiment on HCC 2998 was > 100 µM (inactive) throughout.

In the case of `Cc1cc2c(C)cc(=O)[nH]c2cc1N`, the GI50 with SK-MEL-5 was > 100 µM (inactive); in the experiment with EKVX, 67.6 µM (inactive); in the experiment with COLO 205, 60.1 µM (inactive); with SNB-75, 84.3 µM (inactive); in the experiment with KM12, > 100 µM (inactive); with HOP-62, > 100 µM (inactive). Also, the GI50 is > 100 µM (inactive) in the experiment on SF-295; > 100 µM (inactive) with SN12C; > 100 µM (inactive) with LOX IMVI; > 100 µM (inactive) in the experiment on SK-MEL-28; 35.4 µM (inactive) in the experiment on UACC-62; > 100 µM (inactive) in the experiment on OVCAR-4. Moreover, the GI50 with MOLT-4 was > 100 µM (inactive); in the experiment on MDA-N it was > 100 µM (inactive); with RXF 393, > 100 µM (inactive); with HT-29, 81.1 µM (inactive); in the experiment with MDA-MB-435 it was > 100 µM (inactive); in the experiment with SF-539, > 100 µM (inactive). The GI50 in the experiment with HCC 2998 was 61.4 µM (inactive).

On to `NC(=O)c1nnsc1NC=O`, for which the GI50 with SK-MEL-5, in the experiment on EKVX, with COLO 205, in the experiment on SK-MEL-2, in the experiment with SNB-75 and in the experiment with KM12 was > 100 µM (inactive) throughout. The GI50 with HOP-62, in the experiment on SF-295, in the experiment on SN12C, in the experiment with LOX IMVI, with SK-MEL-28 and in the experiment with UACC-62 was > 100 µM (inactive) in each case. For the same molecule, the GI50 in the experiment on MOLT-4, in the experiment on MDA-N, in the experiment with RXF 393, with HT-29, with MDA-MB-435 and with HCC 2998 was > 100 µM (inactive) throughout.

For `CN(C)c1n/c(=N/Cc2ccccn2)ss1`, the GI50 in the experiment with SK-MEL-5 is > 10 µM (inactive); in the experiment with EKVX, > 10 µM (inactive); in the experiment with COLO 205, > 10 µM (inactive); in the experiment with SNB-75, > 10 µM (inactive); in the experiment with KM12 it was > 9.57 µM (inactive); in the experiment with HOP-62, > 10 µM (inactive). Moreover, the GI50 in the experiment on SF-295 is > 10 µM (inactive); with SN12C, 9.77 µM (inactive); with LOX IMVI it was 2.51 µM (inactive); with SK-MEL-28, > 10 µM (inactive); with UACC-62, > 10 µM (inactive); in the experiment on OVCAR-4 it was > 7.26 µM (inactive). Besides, the GI50 was 1.78 µM (inactive) in the experiment on MOLT-4; > 10 µM (inactive) with MDA-N; > 8.79 µM (inactive) in the experiment with RXF 393; > 10 µM (inactive) with HT-29; > 10 µM (inactive) in the experiment on MDA-MB-435; > 10 µM (inactive) with SF-539. Further, the GI50 in the experiment with HCC 2998 was > 10 µM (inactive).

Regarding `CC1(C)N[PH]2(Nc3ccccc3O2)OC1=O`, the GI50 with SK-MEL-5 is 24.3 µM (inactive); in the experiment on EKVX it was 84.3 µM (inactive); in the experiment with COLO 205 it was 17.8 µM (inactive); in the experiment on SNB-75, > 100 µM (inactive); in the experiment with KM12, > 100 µM (inactive); in the experiment with HOP-62, > 100 µM (inactive). For the same molecule, the GI50 in the experiment with SF-295 is 24.7 µM (inactive); in the experiment on SN12C, > 100 µM (inactive); with LOX IMVI, 18.3 µM (inactive); in the experiment on SK-MEL-28 it was 86.9 µM (inactive); in the experiment on UACC-62, 18.6 µM (inactive); with OVCAR-4 it was > 100 µM (inactive). Further, the GI50 in the experiment on MOLT-4 was 22.8 µM (inactive); in the experiment with MDA-N it was 19.2 µM (inactive); in the experiment with RXF 393 it was > 100 µM (inactive); in the experiment on HT-29 it was > 100 µM (inactive); with MDA-MB-435, 16.4 µM (inactive); in the experiment with SF-539 it was 66.5 µM (inactive). Also, the GI50 with HCC 2998 is > 100 µM (inactive).

For `CCC(C)C1=C(O)[N+]2([O-])Oc3ccc(-c4c(O)c(O)c(-c5ccc(OC(C)=O)cc5)c(OC(C)=O)c4OC(C)=O)cc3OC2(C(C)CC)C(=O)N1O` (stereo not given), the GI50 with SK-MEL-5 is > 50 µM (inactive) and 29.2 µM (inactive); in the experiment with EKVX, > 50 µM (inactive); in the experiment with COLO 205 it was > 50 µM (inactive); in the experiment with SK-MEL-2, > 50 µM (inactive); with KM12 it was > 50 µM (inactive); with HOP-62 it was > 50 µM (inactive). Besides, the GI50 in the experiment on SF-295 was > 50 µM (inactive); with SN12C it was 42.9 µM (inactive); in the experiment on LOX IMVI, 38.3 µM (inactive) and 37.2 µM (inactive); with SK-MEL-28, 46.1 µM (inactive); with UACC-62, > 50 µM (inactive) and 31.3 µM (inactive); in the experiment with OVCAR-4 it was 12.9 µM (inactive) and 14.9 µM (inactive). The GI50 in the experiment with MOLT-4 is 23.7 µM (inactive) and 14.4 µM (inactive); in the experiment with MDA-N, 36.3 µM (inactive) and 24.3 µM (inactive); with RXF 393, > 50 µM (inactive); in the experiment on HT-29 it was > 50 µM (inactive); in the experiment on MDA-MB-435 it was 26.1 µM (inactive) and 22.9 µM (inactive); in the experiment on SF-539, > 50 µM (inactive). In the experiment on HCC 2998, the GI50 is 11.9 µM (inactive).

On to `C=C(C)C#CC(O)(C(=O)OC1CCN(C)CC1)C(C)C` (stereo not given), for which the GI50 in the experiment on SK-MEL-5, in the experiment with EKVX, in the experiment with COLO 205, with SNB-75, in the experiment on KM12 and with HOP-62 was > 100 µM (inactive) throughout. Further, the GI50 in the experiment on SF-295, with SN12C, in the experiment on LOX IMVI, with SK-MEL-28, in the experiment on UACC-62 and with MOLT-4 was > 100 µM (inactive) in each case. In addition, the GI50 with MDA-N, in the experiment with RXF 393, in the experiment on HT-29, with MDA-MB-435, in the experiment on SF-539 and in the experiment with HCC 2998 was > 100 µM (inactive) throughout.

As for `NC(=S)N/N=C\c1nccc2ccccc12`, the GI50 in the experiment on SK-MEL-5 is 0.143 µM (active); with EKVX, 0.302 µM (active); in the experiment with COLO 205 it was 0.302 µM (active); in the experiment on SK-MEL-2 it was 6 µM (inactive); with KM12, 0.885 µM (active); in the experiment with HOP-62, 0.321 µM (active). In addition, the GI50 in the experiment on SF-295 is 0.187 µM (active); in the experiment on SN12C it was 0.262 µM (active); in the experiment on LOX IMVI it was 0.324 µM (active); in the experiment on SK-MEL-28 it was 0.36 µM (active); in the experiment with UACC-62, 0.136 µM (active); in the experiment on OVCAR-4 it was 0.309 µM (active). Also, the GI50 is 0.226 µM (active) in the experiment with MOLT-4; 0.429 µM (active) in the experiment with MDA-N; 0.357 µM (active) with RXF 393; 0.485 µM (active) with HT-29; 0.388 µM (active) with MDA-MB-435; 0.155 µM (active) with SF-539. The GI50 in the experiment with HCC 2998 is 3.04 µM (inactive).

With `COC(=O)CC(C#N)(OP1(=O)OC(c2ccccc2)C(C)N1C)c1ccccc1` (stereo not given), the GI50 in the experiment on SK-MEL-5 is 64.3 µM (inactive); with EKVX, 21.7 µM (inactive); in the experiment on COLO 205, 34.5 µM (inactive); in the experiment on SK-MEL-2, 27.2 µM (inactive); in the experiment on SNB-75, 43.4 µM (inactive); in the experiment on KM12 it was 20.6 µM (inactive). Further, the GI50 in the experiment on HOP-62 was 30.7 µM (inactive); with SF-295 it was 42 µM (inactive); in the experiment on SN12C it was 29.6 µM (inactive); in the experiment on LOX IMVI it was 21 µM (inactive); with SK-MEL-28, 31.1 µM (inactive); in the experiment with UACC-62, 19.8 µM (inactive). Also, the GI50 in the experiment on MOLT-4 is 25.5 µM (inactive); with MDA-N, 26.8 µM (inactive); with RXF 393, 20.6 µM (inactive); in the experiment on HT-29 it was 23.8 µM (inactive); in the experiment on MDA-MB-435, 21.4 µM (inactive); in the experiment on SF-539 it was 37.5 µM (inactive). Besides, in the experiment with HCC 2998, the GI50 was 16.6 µM (inactive).

Consider `CN(C)Cc1cc(C(=O)/C=C/c2ccccc2)cc(CN(C)C)c1O`, for which the GI50 was 16.6 µM (inactive) in the experiment on SK-MEL-5; 33.6 µM (inactive) in the experiment on EKVX; 17.8 µM (inactive) in the experiment with COLO 205; 24.9 µM (inactive) with SNB-75; 18.6 µM (inactive) with KM12; 32.4 µM (inactive) in the experiment on HOP-62. Besides, the GI50 in the experiment with SF-295 was 15.5 µM (inactive); with SN12C, 11.7 µM (inactive); in the experiment on LOX IMVI it was 5.14 µM (inactive); in the experiment with SK-MEL-28 it was 20.6 µM (inactive); in the experiment with OVCAR-4, 20.4 µM (inactive); in the experiment with MOLT-4, 16.8 µM (inactive). Besides, the GI50 with MDA-N is 13.3 µM (inactive); in the experiment on RXF 393, 16.5 µM (inactive); in the experiment with HT-29, 16.9 µM (inactive); with MDA-MB-435, 31.6 µM (inactive); with SF-539, 19.7 µM (inactive); in the experiment on HCC 2998, 21.3 µM (inactive).

(Values after ChEMBL document CHEMBL1201862, “PubChem BioAssay data set” (2004).)
